# Assay results reported in patent publication US20090209605A1, “NEMATICIDAL COMPOSITIONS” (Devgen N.V., priority 2004, published 2009).
# Assays:
# Assay type in all cases: in vivo
# [1] = tested on: Meloidogyne incognita; assay: Root infestation on agar plate: root knot count on potato microplant roots; conditions: 60 μM in agar, galls counted 5 weeks after inoculation, four replicates
# Experimental: 9 cm petri dishes were filled with a 15 ml agar. One stem cutting of a potato microplant (Solanum tuberosum cv. Desirée) was placed on top of the agar layer. After 2 to 3 weeks of incubation at 20° C., the root system was sufficiently developed to be inoculated.
# The test compounds (see Table 1) were added 2 days before inoculation by way of spreading a 2 ml DMSO-solution with the compound over the agar and allowing the compound to diffuse in the agar during two days at constant temperature of 20° C. During incubation, the plates are protected from light in a dark incubator. The resulting concentration of each compound in each agar plate was 60 μM.
# After incubation, approximately 400 axenic juveniles of Meloidogyne incognita species were added to the plate.
# The plates were incubated in the dark at a constant temperature of 20° C. and 5 weeks after inoculation the number of galls formed on the roots were determined by counting. Also any toxic effect of the test compounds on the roots was recorded. 8 weeks after inoculation the plates were stored at low temperature.
# Each compound was tested in four replicates. Positive controls were treated with different concentrations of Aldicarb, a known nematicide. Negative controls included 5 replicates of double negative controls (no compound, no nematode), 5 replicates of single negative controls (no compound, with nematode) and 5 replicates of DMSO controls (DMSO solution, with nematode).
# [2] = tested on: Heterodera nematode; assay: Pot Assay 3: Heterodera infection of sugar beet, crop vigor and crop height; conditions: infested soil
# Description: The soil used in this assay originated from a Heterodera nematode infested sugar plot of which the infestation was confirmed by means of several soil analyses. Each pot was filled up with a soil mixture composed as follows: a) the infested soil was constituted by silt loam soil (about 600 g/pot) mixed with sterile peat (about 600 g/pot) and sterile cork (about 200 g/pot); b) the sterile soil was instead constituted only by sterile peat (1200 g/pot) and sterile cork (200 g/pot).
# (§1) Each compound or compound mixture as described herein was tested in 4 different rates with 4 replicates per rate. One pot per replicate was used in which 18 beava sugar beet seeds (variety GEA (KWS)) were sown. After crop germination, the number of plants was reduced to 10 plants. The 4 rates added to the soil of the tested compounds or compound mixtures were 0.05 mg, 0.20 mg, 1 mg and 5 mg. These amounts translate to field application rates respectively as 30, 120, 600 and 3000 g per hectare.
# Efficacy of the compounds described herein as nematicide was measured by visual inspection of the crop vigor and the crop height. The crop vigor evaluation is based on a 0-100 scale, where 0 is “no vigor” and 100 is “maximum vigor”. The crop height development is based on a measurement, in cm, per plant, excluding the root system.
# Positive control plants were treated with Oxamyl (Vydate 5 G, 5% gr) at a rate of 40 kg fp per ha. Negative controls involved single negative controls (no compound, with nematode infested soil; referenced as “Untreated 1”) and double negative controls (no compound, sterile soil; referenced as “Untreated 2”).
# [3] = tested on: Meloidogyne incognita nematodes; assay: Pot Assay 1: Meloidogyne infection of potato, egg masses/galls on roots; conditions: potato in pot, week 8 after inoculation
# Experimental: 500 ml clay pots were filled with 400 ml of silver sand. One tuber of potato ( Solanum tuberosum cv. Bintje) was planted in the sand. After 2 to 3 weeks incubation, the potato plant was sufficiently developed to be inoculated.
# Plants were grown under the usual standard greenhouse conditions at 14° C.-18° C., with 16 hours light and 8 hours dark and 80-90% relative humidity. The pots were watered using individual drippers and fertilizers were added under the form of macro- and micro nutrients according to plant growth requirements. When needed, the plants were sprayed with fungicides and insecticides.
# The compounds as described herein were added one day before inoculation. The compounds were dissolved in a 20 ml DMSO-solution and spread over the sand surface. The final concentration is calculated under the assumption that the compound is diffused entirely in the pot. This process occurred during two days at the normal greenhouse conditions described above.
# After compound incubation, approximately 1500 juveniles of Meloidogyne incognita nematodes were added to the pots.
# The pots were incubated at the described greenhouse conditions until nematode development was completed. At week 8 after inoculation the number of galls formed on the roots was counted after washing off the sandy substrate. Also the effect of the compound on the plant development was recorded.
# Every compound was tested in three replicates. Positive control plants were treated with different concentrations of aldicarb, a known nematicide. Negative controls involved 12 replicates of double negative controls (no compound, no nematode), 12 replicates of single negative controls (no compound, no DMSO, with nematode), 24 replicates of DMSO controls (DMSO solution, with nematode).
# As assessment of the root development was taken into account.
# [4] = tested on: sugar beet (variety GEA (KWS)); assay: Pot Assay 3: phytotoxicity, number of sugar beet plants emerged
# Experimental: as §1
# Phytotoxicity assessments were carried by assessing any possible effects of the chemicals on the crop, such as chlorosis, yellowing, stunting, in comparison to the untreated control without nematodes.
# [5] = tested on: Meloidogyne nematodes; assay: Pot Assay 2: Meloidogyne infection of tomato, % infestation of roots; conditions: tomato in infested soil
# Experimental: The soil used in this assay originated from a plot, heavily infested with Meloidogyne nematodes. Part of this soil was sterilized by autoclaving and was used as negative control. Sandy soil, which was not infested with nematodes, was pursued from a commercial source.
# Plastic seedling trays with wells of 60 ml capacity were filled with about 40 ml of soil per well. 5 ml of water per well was used for irrigation.
# Compounds as described herein were tested in 4 different rates and with 12 replicates for each concentration. The compounds as described herein were stored as dry films of 4 different concentrations. The day of the application of the compounds, all the dry films were dissolved in 60 ml water and poured into the 12 replicate wells: 5 ml per well. Every tray of 12 wells was identified with a label, indicating compound and concentration used. The 4 final rates in the soil of the tested compound were approximately 0.05 mg, 0.20 mg, 1 mg and 5 mg. These amounts translate to field application rates respectively as 30, 120, 600 and 3000 g per hectare.
# 3-5 days after application of the tested compound, tomato seeds (cv. Rio Grande) were sown in the wells by hand, at about 2 cm deep. A light cover of vermiculite on the surface was used to avoid dehydration. Plants were irrigated by micro-nebulization 3-4 times per week at a rate of 3 L/m^2, weeded by hand and treated with fertilizers, fungicide and insecticides when needed.
# Their resistance against nematode infection was monitored and the efficacy of compounds described herein as a nematicide was measured. Furthermore the phytotoxicity of the test compounds was evaluated.
# Efficacy of the compounds described herein as nematicide was measured by giving the roots a percentage of infestation measured as follows. Plants were grown to reach good development of the roots, which corresponds to plants grown to about 10 cm high at about one month after emergence. After removal of the soil from the roots by rinsing with water, the roots were visually inspected and root galls were counted on 4 plants of the set of 12 replicate plants.
# Positive control plants were treated with a 10 micromolar concentration of oxamyl (Vydate, 10% SL; the rate of 10 micromolar corresponds to a commercial rate of 20 l/ha), a known nematicide. Negative controls involved double negative controls (no compound, sterile soil), and single negative controls (no compound, with nematode infested soil).
# [6] = tested on: tomato (cv. Rio Grande); assay: Pot Assay 2: root development (vigor of roots) of tomato; conditions: visual value 0 to 10 (10 equal to control)
# Experimental: Phytotoxicity of compounds as described herein when used as a nematicide, was measured as follows. […] At that moment, plant emergence was assessed for the plants treated with any of the compounds as described herein, by counting the number of plants per compound-concentration.
# Vigor of roots was also assessed once the plants are well established so as not to loose plants. To assess vigor of the plants or roots, a visual value ranging from 0 to 10 (0 no vigor, 10 equal to control) was scored per compound-concentration.
# [7] = tested on: root-knot nematode (Meloidogyne spp); assay: Nematicide field trial on tomato: root galling and yield; conditions: for Average root galling: 0-5 Lamberti scale
# Experimental: (§2) Open field tomatoes (Lycopersicon esculentum, variety incas) were grown on sandy soil with a natural root-knot nematode (Meloidogyne spp) population. Soil samples, collected prior to planting, contained on average 113 J2 juveniles per 100 g soil. A program of 5 applications with intervals of about 14 days was started two days after transplantation.
# (§3) An experimental pattern at Complete Randomized Blocks with four replicas was adopted. Besides the experimental products, each test also included an untreated control and a treatment with the standard commercial product VYDATE 10L (10%) applied in accordance to label instructions.
# The read-outs are the average yield of the marketable tomatoes per plant (Table 7). The level of nematode attack of the root system at the time of harvesting was assessed by means of the lamberti scoring.
# [8] = tested on: root-knot nematode (Meloidogyne spp); assay: Nematicide field trial on cucumber: root galling and yield; conditions: for Average root galling: 0-5 Lamberti scale
# Experimental: as §2, with “ground grown cucumber (Cucumis sativus cv Carine)” for “field tomatoes (Lycopersicon esculentum, variety incas)”, “8” for “113”, “4” for “5”, “six” for “two”
# as §3
# […] The level of nematode attack of the root system at the time of harvesting was assessed by means of the lamberti scoring.
# [9] = Product Rate 1 (footnote g ai/ha)
# [10] = Product Rate 2 (footnote g ai/ha)
# [11] = Product Rate 4 (footnote g ai/ha)
# [12] = Product Rate 8 (footnote g ai/ha)
compound,measurement,setting,value
COC(=O)c1sccc1S(=O)(=O)NC(=O)Nc1nc(C)nc(OC)n1 [XL],"Root knot count, average of the replicate counts",[1],0
same,crop height (cm),[2]; Rate 0.05 mg,12 cm
same,crop vigor (max 100%),[2]; Rate 0.05 mg,90%
c1coc(-c2nc3ccccc3[nH]2)c1 [XVI],"Root knot count, average of the replicate counts",[1],14.5
same,"number of egg masses (galls) on roots, Replicate 2",[3]; 10 μM,50
same,"number of egg masses (galls) on roots, Replicate 2",[3]; 50 μM,40
same,"number of egg masses (galls) on roots, Replicate 3",[3]; 50 μM,15
same,crop height (cm),[2]; Rate 0.05 mg,13 cm
same,crop vigor (max 100%),[2]; Rate 0.05 mg,90%
same,# crops emerged (max 18),[4]; Rate 0.05 mg,18
CCN(Cc1ccc(Cl)nc1)/C(=C/[N+](=O)[O-])NC [XXIX],"Root knot count, average of the replicate counts",[1],17.5
same,"number of egg masses (galls) on roots, Replicate 1",[3]; 50 μM,50
same,"number of egg masses (galls) on roots, Replicate 2",[3]; 50 μM,40
same,"number of egg masses (galls) on roots, Replicate 3",[3]; 50 μM,40
same,% INF. (% Infestation),[5]; RATE 0.05 mg,3.8%
same,% INF. (% Infestation),[5]; RATE 0.2 mg,1.3%
same,% INF. (% Infestation),[5]; RATE 1 mg,2.5%
same,% INF. (% Infestation),[5]; RATE 5 mg,5.0%
same,ROOT DEV.,[6]; RATE 0.05 mg,7.9
same,ROOT DEV.,[6]; RATE 0.2 mg,7.7
same,ROOT DEV.,[6]; RATE 1 mg,7.5
same,ROOT DEV.,[6]; RATE 5 mg,6.6
CC(C)NC(=O)N1CC(=O)N(c2cc(Cl)cc(Cl)c2)C1=O [XXV],"Root knot count, average of the replicate counts",[1],17
same,"number of egg masses (galls) on roots, Replicate 1",[3]; 10 μM,50
same,"number of egg masses (galls) on roots, Replicate 2",[3]; 10 μM,50
same,"number of egg masses (galls) on roots, Replicate 1",[3]; 50 μM,30
same,"number of egg masses (galls) on roots, Replicate 2",[3]; 50 μM,25
same,"number of egg masses (galls) on roots, Replicate 3",[3]; 50 μM,20
same,Average yield of marketable fruits,[7]; [9],1.45 kg/plant/pot
same,Average root galling,[7]; [9],1.8
same,Average yield of marketable fruits,[7]; [10],1.33 kg/plant/pot
same,Average root galling,[7]; [10],1.3
same,Average yield of marketable fruits,[8]; Product Rate 500 g ai/ha,6.7 kg/plant/pot
same,Average root galling,[8]; Product Rate 500 g ai/ha,2.75
same,Average yield of marketable fruits,[8]; Product Rate 1500 g ai/ha,9.1 kg/plant/pot
same,Average root galling,[8]; Product Rate 1500 g ai/ha,1.75
CC(C)[C@@H](Nc1ccc(C(F)(F)F)cc1Cl)C(=O)OC(C#N)c1cccc(Oc2ccccc2)c1 (stereo partly drawn) [XXXVI],"Root knot count, average of the replicate counts",[1],0
same,crop height (cm),[2]; Rate 0.05 mg,9 cm
same,crop vigor (max 100%),[2]; Rate 0.05 mg,70%
same,crop height (cm),[2]; Rate 0.2 mg,14 cm
same,crop vigor (max 100%),[2]; Rate 0.2 mg,100%
same,crop height (cm),[2]; Rate 1 mg,15 cm
same,crop vigor (max 100%),[2]; Rate 1 mg,100%
same,crop height (cm),[2]; Rate 5 mg,13 cm
same,crop vigor (max 100%),[2]; Rate 5 mg,90%
same,# crops emerged (max 18),[4]; Rate 0.05 mg,18
same,# crops emerged (max 18),[4]; Rate 0.2 mg,18
same,# crops emerged (max 18),[4]; Rate 1 mg,18
same,# crops emerged (max 18),[4]; Rate 5 mg,18
same,Average yield of marketable fruits,[7]; [11],1.43 kg/plant/pot
same,Average root galling,[7]; [11],1.8
same,Average yield of marketable fruits,[7]; [12],1.26 kg/plant/pot
same,Average root galling,[7]; [12],1.8
same,Average yield of marketable fruits,[8]; Product Rate 250 g ai/ha,9.3 kg/plant/pot
same,Average root galling,[8]; Product Rate 250 g ai/ha,1.88
same,Average yield of marketable fruits,[8]; Product Rate 500 g ai/ha,9.6 kg/plant/pot
same,Average root galling,[8]; Product Rate 500 g ai/ha,1.63
